# Assay results: patent US4440757A, “Pharmaceutical composition comprising derivative of aminobenzoic acid for regulating prostaglandin” (priority 1978, dated 1984)
# How the values were obtained:
# [1] = system: sarcoma 180 tumour cells, cyclic AMP; assay: Level of cyclic AMP in tumour cells of sarcoma 180; assay type: cell-based, mouse; conditions: room temperature, 5 min
# Description: The present substance was added to 100 μl of the ascites-type tumour taken from the abdominal cavity of sarcoma 180-bearing mice to be a predetermined concentration, in this case, Specimen No. 7, and the mixture was incubated at room temperature for 5 min. After incubation, the culture was boiled, homogenized and centrifugated to obtain a supernatant liquid. The thus obtained supernatant liquid was subjected to the determination of cyclic AMP by the method of Gilman. […] The participation of the present substance in the metabolism of PGs is presumed also from this fact.
# Ehrlich cancer cells = assay: Cyclic AMP and cyclic GMP in cancer cells of cancer-bearing mouse; assay type: in vivo, female ICR/JCL mice; conditions: 200 mg/kg/day i.p., 5 days
# Description: Ehrlich cancer cells were transplanted into the abdominal cavity of female ICR/JCL mice after 5 weeks of birth at a rate of 1×10^6, cells/animal, and while feeding the mice, the present substance, Specimen No. 7, was intraperitoneally administered to the mice every day from the next day of transplantation for 5 days at a rate of 200 mg/kg/day. On the 6th day, the mice were sacrificed with ether to collect each 5 ml of ascites. After adding tetrasodium ethylenediamminetetraacetate into the thus collected ascites, the mixture was centrifugated for 10 min at a temperature of 4° C. and 1,500 rpm to separate the supernatant liquid and the cancer cells. The supernatant liquid was again centrifugated at 4° C. and 3,000 rpm for 15 min. The separated cancer cells were washed with Hank's solution and then subjected to repeated centrifugation for 5 times at 800 rpm for each 5 min to remove impurities such as erythrocytes, etc. After homogenizing 1×10^8 cells of the cancer in 3 ml of an aqueous 6% solution of trichloroacetic acid at a temperature of 0° C., the homogenate was centrifugated for 20 min at 3000XG to obtain a liquid extract. After adding 10% by weight of an aqueous 1 N solution of hydrochloric acid to the liquid extract, it was extracted 5 times with each two times by volume of ether to remove trichloroacetic acid. […]
# [2] = system: human dinuclear leukemia J-111 strain; assay: PGs in culture medium of human leukemia cells; assay type: cell-based; conditions: 50, 500 or 5,000 μg/ml, 7 days
# Description: To each 10 ml of a culture medium prepared by adding 10% of bovine foetal serum and one of the present substance, Specimen No. 7, at a concentration of 50, 500 or 5,000 μg/ml to Eagle's culture medium and placed in a polystyrene flask of 75 cm^2 in bottom surface, 5×10^5 cultured cells of human dinuclear leukemia J-111 strain were inoculated and cultured at 37° C. under a mixed atmosphere of 5% by volume of gaseous […] and 95% by volume of air for 7 days. During the cultivation, the culture medium was replaced on the second day and the fourth day with respective fresh ones, and each spent medium was subjected to centrifugation as soon as possible at a temperature of 4° C. at 1,500 rpm to obtain each supernatant liquid of cultured medium. The content of PGE and PGF2-α in each supernatant liquid was determined by ^3 H-Prostaglandin E Radioimmunoassay Kit and ^3 H-Prostaglandin F Radioimmunoassay Kit (manufactured by Clinical assay Co. U.S.A.).
# Ehrlich's cancer cell = assay: PGE in Ehrlich tumour and tumour weight (oral); assay type: in vivo, female C57BL/6 mouse; conditions: 1 g/kg/day oral
# Description: Ehrlich's cancer cell were transplanted subcutaneously to groups of female C57BL/6 mouse after 8 weeks of her birth and while feeding the mice, the present substance, Specimen No. 7, was orally administered to each mouse every day at a rate of 1 g/kg/day. On 7th or 14th day of the transplantation, the mice were sacrificed with ether to extirpated the tumour. The tumour was treated by the same procedures as in Example 11 to determine the content of PGE therein. The concentration of PGE in the tumour was larger in the animal transplanted with the cells and administered with the present substance than in the control to which the same cells were transplanted but the present substance was not administered. Further it is observed that the content of PGE decreased in both groups as the time passed, and the rate of decrease was smaller in the group transplanted and administered than in the control group transplanted but not administered. These facts give the information that the present substance participates to the metabolism of PGE.
# Adenocarcinoma 755 = assay: PGE in tumour of adenocarcinoma 755 and its proliferation; assay type: in vivo, female C57BL/6 mouse; conditions: 1 g/kg/day oral
# Description: Tumour cells of Adenocarcinoma 755 were transplanted subcutaneously to groups of female C57BL/6 mouse of after 8 weeks of birth and while feeding the mice, the present substance, Specimen No. 7, was orally administered every day from the next day of transplantation at a rate of 1 g/kg/day. The mice were sacrificed with ether on 7th or 14th day of transplantation to extirpate the tumour. The thus extirpated tumour was treated by the same procedures as in Example 11 to determine the content of PGE in the tumour.
smiles,measurement,setting,value
"O=C(O)c1ccc(NC2OC[C@@H](O)[C@H](O)[C@H]2O)cc1 (stereo partly drawn) [Specimen No. 7, Sodium p-aminobenzoate-N--D-xyloside]",level of cyclic AMP in tumour cells (FIG. 10),[1],raising the level of cyclic AMP in the tumour cells of sarcoma 180
same,GMP per 10^8 cancer cells,Ehrlich cancer cells; control 0.59,0.72 pM
same,Cyclic AMP per 10^8 cancer cells,Ehrlich cancer cells; control 19.5,21.2 pM
same,rate of decrease of PGE (FIG. 13),[2],the rate of decrease of PGE was raised as the concentration of the present substance was increased
same,rate of increase of PGF2-α (FIG. 12),[2],the rate of increase of PGF2-α was reduced as the concentration of the present substance was increased
same,Weight of tumour,"Ehrlich's cancer cell; 7th day, control 0.09",0.08 g
same,Content of PGE in the tumour,"Ehrlich's cancer cell; 7th day, control 2.59",2.80 ng/g
same,Weight of tumour,"Ehrlich's cancer cell; 14th day, control 0.84",0.67 g
same,Content of PGE in the tumour,"Ehrlich's cancer cell; 14th day, control 1.16",1.65 ng/g
same,Content of PGE in tumour,"Adenocarcinoma 755; 7th day, control 0.67",2.83 ng/g
same,Weight of tumour,"Adenocarcinoma 755; 7th day, control 1.34",1.04 g
same,Content of PGE in tumour,"Adenocarcinoma 755; 14th day, control 0.34",1.15 ng/g
same,Weight of tumour,"Adenocarcinoma 755; 14th day, control 4.01",3.10 g
